According to patent US11020399B2, “Intermediates useful in the synthesis of compounds as modulators of protein kinases” (Rhizen Pharmaceuticals SA, priority 2011, dated 2021):

Experiments:
PI3kδ = PI3kδ (Homo sapiens, UniProt O00329); assay: Fluorescent (HTRF) determination of PI3 kinase enzyme activity, PI3Kδ; assay type: biochemical; settings: for inhibition at 0.1 µM / % inhibition (PI3kδ) 100 nM: 100 nM (Examples 60-137); for % inhibition (PI3kδ) 100 nM: 0.1 µM; for inhibition at 0.3 µM: 300 nM (Examples 1-59)
Method in brief: (§1)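 HTRF detection of PIP3 from PIP2 (1.38 μM in reaction mix) with 10 mM MgCl2, 5 mM DTT; compound preincubated with enzyme 10 min, then ATP (400 μM addition) 30 min at room temperature. Percent inhibition versus blank and enzyme controls at 1 μM (α, β) and 0.3 or 0.1 μM (γ, δ); IC50 also fitted.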

PI3kγ = PI3kγ (Homo sapiens, UniProt P48736); assay: Fluorescent (HTRF) determination of PI3 kinase enzyme activity, PI3Kγ; assay type: biochemical; settings: for inhibition at 0.1 µM / % inhibition (PI3kγ) 100 nM: 100 nM (Examples 60-137); for inhibition at 0.3 µM: 300 nM (Examples 1-59)
Method in brief: as §1

PI3kβ = PI3kβ (Homo sapiens, UniProt P42338); assay: Fluorescent (HTRF) determination of PI3 kinase enzyme activity, PI3Kβ; assay type: biochemical
Method in brief: as §1

PI3kα = PI3kα (Homo sapiens, UniProt P42336); assay: Fluorescent (HTRF) determination of PI3 kinase enzyme activity, PI3Kα; assay type: biochemical
Method in brief: as §1

Sequence of PI3kδ (O00329 whole entry): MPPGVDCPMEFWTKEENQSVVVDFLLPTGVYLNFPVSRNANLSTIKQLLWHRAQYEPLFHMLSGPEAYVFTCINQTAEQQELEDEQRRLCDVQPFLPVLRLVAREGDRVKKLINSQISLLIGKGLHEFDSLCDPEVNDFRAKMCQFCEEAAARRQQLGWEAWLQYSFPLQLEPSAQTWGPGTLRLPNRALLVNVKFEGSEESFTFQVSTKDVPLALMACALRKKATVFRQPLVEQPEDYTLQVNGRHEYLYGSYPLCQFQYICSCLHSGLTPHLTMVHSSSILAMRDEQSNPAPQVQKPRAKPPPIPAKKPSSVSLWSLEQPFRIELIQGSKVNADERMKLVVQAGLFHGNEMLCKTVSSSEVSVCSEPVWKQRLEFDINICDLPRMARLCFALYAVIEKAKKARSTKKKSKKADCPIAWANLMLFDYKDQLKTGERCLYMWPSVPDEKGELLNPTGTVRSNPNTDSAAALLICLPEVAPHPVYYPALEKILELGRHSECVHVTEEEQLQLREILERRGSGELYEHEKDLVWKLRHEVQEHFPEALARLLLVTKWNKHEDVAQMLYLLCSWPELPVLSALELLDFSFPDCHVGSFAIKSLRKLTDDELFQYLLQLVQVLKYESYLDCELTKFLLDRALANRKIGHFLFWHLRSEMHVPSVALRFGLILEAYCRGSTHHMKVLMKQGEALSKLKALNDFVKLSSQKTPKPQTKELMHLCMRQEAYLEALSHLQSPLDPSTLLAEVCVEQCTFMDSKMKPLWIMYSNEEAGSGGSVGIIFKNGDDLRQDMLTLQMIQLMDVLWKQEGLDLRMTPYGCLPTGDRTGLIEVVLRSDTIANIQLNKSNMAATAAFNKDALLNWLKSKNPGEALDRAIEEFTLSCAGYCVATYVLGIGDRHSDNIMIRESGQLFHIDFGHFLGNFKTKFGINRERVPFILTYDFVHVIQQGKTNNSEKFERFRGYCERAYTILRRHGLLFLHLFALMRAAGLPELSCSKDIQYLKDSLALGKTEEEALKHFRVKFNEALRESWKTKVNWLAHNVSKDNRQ
Sequence of PI3kδ (P27986 whole entry partner): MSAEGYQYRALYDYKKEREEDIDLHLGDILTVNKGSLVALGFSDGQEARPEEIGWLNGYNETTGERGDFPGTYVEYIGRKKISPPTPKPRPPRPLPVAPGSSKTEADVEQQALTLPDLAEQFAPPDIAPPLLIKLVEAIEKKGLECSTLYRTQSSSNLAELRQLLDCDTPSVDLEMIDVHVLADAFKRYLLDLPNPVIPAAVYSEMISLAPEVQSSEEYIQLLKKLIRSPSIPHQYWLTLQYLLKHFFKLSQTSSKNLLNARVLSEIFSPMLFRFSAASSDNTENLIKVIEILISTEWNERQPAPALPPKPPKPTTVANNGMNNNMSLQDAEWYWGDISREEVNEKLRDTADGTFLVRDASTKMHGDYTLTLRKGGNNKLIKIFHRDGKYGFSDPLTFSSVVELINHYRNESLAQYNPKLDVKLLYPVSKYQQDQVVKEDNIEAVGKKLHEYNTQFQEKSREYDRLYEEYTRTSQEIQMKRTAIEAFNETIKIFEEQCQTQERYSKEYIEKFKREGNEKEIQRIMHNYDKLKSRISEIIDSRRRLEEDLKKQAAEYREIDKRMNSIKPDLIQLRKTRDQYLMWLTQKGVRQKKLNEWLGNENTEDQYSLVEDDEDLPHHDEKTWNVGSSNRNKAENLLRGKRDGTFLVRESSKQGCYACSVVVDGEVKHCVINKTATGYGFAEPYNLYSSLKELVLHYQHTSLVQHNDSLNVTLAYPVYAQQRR
Sequence of PI3kγ (P48736 whole entry): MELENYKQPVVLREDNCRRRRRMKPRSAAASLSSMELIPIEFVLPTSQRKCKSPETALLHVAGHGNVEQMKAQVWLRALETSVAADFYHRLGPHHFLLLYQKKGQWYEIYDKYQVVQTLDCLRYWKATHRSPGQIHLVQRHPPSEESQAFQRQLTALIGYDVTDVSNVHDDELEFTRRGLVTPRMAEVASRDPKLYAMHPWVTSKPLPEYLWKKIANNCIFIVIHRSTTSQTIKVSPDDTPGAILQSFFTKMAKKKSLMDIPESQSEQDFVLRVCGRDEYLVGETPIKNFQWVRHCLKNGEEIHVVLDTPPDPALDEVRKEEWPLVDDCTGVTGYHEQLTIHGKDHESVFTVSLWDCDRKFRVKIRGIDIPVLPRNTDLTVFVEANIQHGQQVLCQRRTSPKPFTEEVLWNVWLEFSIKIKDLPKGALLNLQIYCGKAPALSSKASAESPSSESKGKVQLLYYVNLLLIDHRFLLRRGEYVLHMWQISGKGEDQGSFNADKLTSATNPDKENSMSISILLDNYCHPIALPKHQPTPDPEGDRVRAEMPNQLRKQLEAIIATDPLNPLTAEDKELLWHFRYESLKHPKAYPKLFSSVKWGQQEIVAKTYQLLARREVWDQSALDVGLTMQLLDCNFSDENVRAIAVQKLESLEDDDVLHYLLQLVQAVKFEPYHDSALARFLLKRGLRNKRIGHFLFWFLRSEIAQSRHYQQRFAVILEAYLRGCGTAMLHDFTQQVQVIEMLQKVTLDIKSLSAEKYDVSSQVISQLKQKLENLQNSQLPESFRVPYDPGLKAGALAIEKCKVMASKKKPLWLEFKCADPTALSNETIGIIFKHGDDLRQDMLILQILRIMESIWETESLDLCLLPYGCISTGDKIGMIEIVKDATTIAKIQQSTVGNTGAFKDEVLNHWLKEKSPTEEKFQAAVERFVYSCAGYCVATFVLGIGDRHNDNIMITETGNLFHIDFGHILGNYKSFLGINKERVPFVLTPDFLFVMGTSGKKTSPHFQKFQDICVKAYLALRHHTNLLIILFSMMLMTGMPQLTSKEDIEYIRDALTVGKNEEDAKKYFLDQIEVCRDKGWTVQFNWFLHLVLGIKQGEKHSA
Sequence of PI3kβ (P42338 whole entry): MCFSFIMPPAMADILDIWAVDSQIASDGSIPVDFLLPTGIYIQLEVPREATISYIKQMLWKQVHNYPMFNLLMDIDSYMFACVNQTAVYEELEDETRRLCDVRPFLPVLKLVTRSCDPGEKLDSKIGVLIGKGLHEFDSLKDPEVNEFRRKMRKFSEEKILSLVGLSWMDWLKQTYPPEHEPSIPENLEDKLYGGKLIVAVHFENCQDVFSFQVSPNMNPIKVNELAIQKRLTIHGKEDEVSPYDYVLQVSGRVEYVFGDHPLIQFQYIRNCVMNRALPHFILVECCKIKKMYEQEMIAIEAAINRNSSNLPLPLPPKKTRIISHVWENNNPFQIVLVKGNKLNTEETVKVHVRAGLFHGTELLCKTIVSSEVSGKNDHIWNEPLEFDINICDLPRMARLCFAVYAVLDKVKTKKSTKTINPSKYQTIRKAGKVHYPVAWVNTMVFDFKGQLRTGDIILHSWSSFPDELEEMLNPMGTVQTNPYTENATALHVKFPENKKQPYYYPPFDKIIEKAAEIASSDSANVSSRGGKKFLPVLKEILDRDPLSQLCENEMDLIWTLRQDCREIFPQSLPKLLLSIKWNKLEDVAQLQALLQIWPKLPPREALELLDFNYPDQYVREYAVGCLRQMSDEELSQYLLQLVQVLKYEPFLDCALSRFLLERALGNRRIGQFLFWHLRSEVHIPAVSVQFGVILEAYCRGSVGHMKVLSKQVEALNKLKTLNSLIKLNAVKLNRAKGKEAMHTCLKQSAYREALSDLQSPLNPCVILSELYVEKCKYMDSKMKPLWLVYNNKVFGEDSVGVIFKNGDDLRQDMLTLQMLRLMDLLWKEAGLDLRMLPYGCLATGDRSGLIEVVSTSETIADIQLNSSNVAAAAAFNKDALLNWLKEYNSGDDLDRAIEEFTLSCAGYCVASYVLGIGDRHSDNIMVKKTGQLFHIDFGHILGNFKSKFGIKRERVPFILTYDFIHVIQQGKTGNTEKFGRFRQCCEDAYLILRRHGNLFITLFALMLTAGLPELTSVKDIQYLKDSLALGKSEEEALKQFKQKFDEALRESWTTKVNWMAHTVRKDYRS
Sequence of PI3kβ (P27986 whole entry partner): as the sequence (P27986 whole entry partner) above
Sequence of PI3kα (P42336 whole entry): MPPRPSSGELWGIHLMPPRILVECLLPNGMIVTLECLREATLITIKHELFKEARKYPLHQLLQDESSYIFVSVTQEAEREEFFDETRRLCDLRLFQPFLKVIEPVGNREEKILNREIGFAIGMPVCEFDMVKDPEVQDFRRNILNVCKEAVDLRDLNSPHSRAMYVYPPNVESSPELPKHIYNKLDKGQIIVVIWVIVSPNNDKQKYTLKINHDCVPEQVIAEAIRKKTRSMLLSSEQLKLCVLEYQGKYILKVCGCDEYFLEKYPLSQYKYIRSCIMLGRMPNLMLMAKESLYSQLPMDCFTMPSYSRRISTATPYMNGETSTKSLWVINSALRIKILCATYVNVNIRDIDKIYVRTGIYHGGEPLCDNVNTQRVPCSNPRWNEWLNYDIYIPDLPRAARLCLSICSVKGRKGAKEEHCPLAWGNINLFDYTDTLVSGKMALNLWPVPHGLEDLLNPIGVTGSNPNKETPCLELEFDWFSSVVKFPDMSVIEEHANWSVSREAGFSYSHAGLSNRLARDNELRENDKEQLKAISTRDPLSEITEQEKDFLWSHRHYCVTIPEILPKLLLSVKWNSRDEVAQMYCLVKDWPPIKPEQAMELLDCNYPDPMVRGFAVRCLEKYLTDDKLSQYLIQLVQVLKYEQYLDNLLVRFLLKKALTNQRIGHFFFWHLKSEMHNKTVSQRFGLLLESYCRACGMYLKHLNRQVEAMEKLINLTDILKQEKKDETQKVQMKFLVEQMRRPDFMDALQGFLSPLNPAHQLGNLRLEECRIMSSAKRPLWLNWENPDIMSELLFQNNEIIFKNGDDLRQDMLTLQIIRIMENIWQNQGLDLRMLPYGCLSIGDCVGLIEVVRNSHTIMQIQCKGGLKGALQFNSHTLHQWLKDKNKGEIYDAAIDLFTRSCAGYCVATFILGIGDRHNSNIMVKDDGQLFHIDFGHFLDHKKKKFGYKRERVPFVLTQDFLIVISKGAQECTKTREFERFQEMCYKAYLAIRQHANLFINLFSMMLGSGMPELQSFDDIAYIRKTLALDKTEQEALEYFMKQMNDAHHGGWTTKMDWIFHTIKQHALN
Sequence of PI3kα (P27986 whole entry partner): as the sequence (P27986 whole entry partner) above

Row | inhibition at 0.1 µM (PI3kδ) [%] | inhibition at 0.1 µM (PI3kγ) [%] | melting point [°C] | inhibition at 1 µM (PI3kβ) [%] | inhibition at 1 µM (PI3kα) [%] | other results | SMILES
1 | 25 to 50 | 25 to 50 | 243 to 246 | – | – | % inhibition (PI3kβ) 1 uM (PI3kβ): C (C=>25 to 50%); % inhibition (PI3kα) 1 uM (PI3kα): D (D=0 to 25%) | CC(c1oc2cccc(F)c2c(=O)c1-c1cccc(F)c1)n1nc(-c2ccc(N3CCOCC3)c(F)c2)c2c(N)ncnc21 (racemic) [Example 70, (R)/(S)-2-(1-(4-amino-3-(3-fluoro-4-morpholinophenyl)-1H-pyrazolo[3,4-d]pyrimidin-1-yl)ethyl)-5-fluoro-3-(3-fluorophenyl)-4H-chromen-4-one]
2 | – | – | 187 to 189 | – | – | % inhibition (PI3kδ) 100 nM (PI3kδ): D (D=0 to 25%); % inhibition (PI3kγ) 100 nM (PI3kγ; 0.1 µM): C (C=>25 to 50%); % inhibition (PI3kβ) 1 uM (PI3kβ): C (C=>25 to 50%); % inhibition (PI3kα) 1 uM (PI3kα): D (D=0 to 25%) | CC(c1oc2cccc(F)c2c(=O)c1-c1cccc(F)c1)n1cnc2c(N(C)C)ncnc21 (racemic) [Example 129, (S)/(R)-2-(1-(6-(dimethylamino)-9H-purin-9-yl)ethyl)-5-fluoro-3-(3-fluorophenyl)-4H-chromen-4-one]
3 | – | – | 242 to 245 | 25 to 50 | – | IC50 (PI3kδ): 100 to 300 nM; IC50 (PI3kγ): ≤ 50 nM; IC50 (PI3kβ): > 500 nM; IC50 (PI3kα; numeric values): > 10000 nM | CC(c1oc2cccc(F)c2c(=O)c1-c1cccc(F)c1)n1nc(-c2ccc(N3CCOCC3)c(F)c2)c2c(N)ncnc21 (single isomer, unassigned) [Example 59]
4 | 50 to 75 | 0 to 25 | 260 to 262 | 50 to 75 | 0 to 25 | – | CC(c1oc2cccc(F)c2c(=O)c1-c1cccc(F)c1)n1nc(-c2ccc(N3CCOCC3)c(Cl)c2)c2c(N)ncnc21 (single isomer, unassigned) [Example 127]
5 | 25 to 50 | 25 to 50 | 198 to 200 | 25 to 50 | – | – | CC(c1oc2cccc(F)c2c(=O)c1-c1cccc(F)c1)n1cnc2c(N(C)C)ncnc21 (single isomer, unassigned) [Example 130]
6 | 25 to 50 | 0 to 25 | 208 to 210 | 50 to 75 | 0 to 25 | – | Cc1cccc2oc([C@H](C)n3nc(-c4ccc(OC(C)C)c(F)c4)c4c(N)ncnc43)c(-c3ccccc3)c(=O)c12 (single isomer, unassigned) [Example 137]
7 | – | – | 194 to 197 | – | 25 to 50 | % inhibition (PI3kδ) 100 nM (PI3kδ): C (C=>25 to 50%); % inhibition (PI3kγ) 100 nM (PI3kγ; 0.1 µM): B (B=>50 to 75%); % inhibition (PI3kβ) 1 uM (PI3kβ): B (B=>50 to 75%) | CC(Nc1ncnc2[nH]cnc12)c1oc2cccc(F)c2c(=O)c1-c1cccc(F)c1 (single isomer, unassigned; (+)) [Example 68, (+)-2-(1-(9H-purin-6-ylamino)ethyl)-5-fluoro-3-(3-fluorophenyl)-4H-chromen-4-one]
8 | 50 to 75 | – | 205 to 208 | 25 to 50 | 0 to 25 | IC50 (PI3kδ): 50 to 100 nM | CC(Nc1ncnc2[nH]cnc12)c1oc2cccc(F)c2c(=O)c1-c1cccc(F)c1 (single isomer, unassigned; (-)) [Example 78, (−)-2-(1-(9H-purin-6-ylamino)ethyl)-5-fluoro-3-(3-fluorophenyl)-4H-chromen-4-one]
9 | – | – | 235 to 237 | 50 to 75 | 0 to 25 | inhibition at 0.3 µM (PI3kδ): 25 to 50%; inhibition at 0.3 µM (PI3kγ): 50 to 75% | CC(c1oc2cccc(F)c2c(=O)c1-c1cccc(F)c1)n1nc(-c2ccc(OC3COC3)c(F)c2)c2c(N)ncnc21 (stereo not drawn) [Example 46, 2-(1-(4-amino-3-(3-fluoro-4-(oxetan-3-yloxy)phenyl)-1H-pyrazolo[3,4-d]pyrimidin-1-yl)ethyl)-5-fluoro-3-(3-fluorophenyl)-4H-chromen-4-one]
10 | – | – | 154 to 157 | 25 to 50 | – | inhibition at 0.3 µM (PI3kδ): 50 to 75%; IC50 (PI3kγ): ≤ 50 nM; inhibition at 0.3 µM (PI3kγ): 75 to 100% | CC(C)C(=O)Nc1ccc(-c2nn(C(C)c3oc4cccc(F)c4c(=O)c3-c3cccc(F)c3)c3ncnc(N)c23)cc1 (stereo not drawn) [Example 48, N-(4-(4-amino-1-(1-(5-fluoro-3-(3-fluorophenyl)-4-oxo-4H-chromen-2-yl)ethyl)-1H-pyrazolo[3,4-d]pyrimidin-3-yl)phenyl)isobutyramide]
11 | – | – | 221 to 223 | 50 to 75 | 50 to 75 | inhibition at 0.3 µM (PI3kδ): 50 to 75%; inhibition at 0.3 µM (PI3kγ): 50 to 75% | CC(C)Cc1ccc(-c2nn(C(C)c3oc4cccc(F)c4c(=O)c3-c3cccc(F)c3)c3ncnc(N)c23)cc1 (stereo not drawn) [Example 49, 2-(1-(4-amino-3-(4-isobutylphenyl)-1H-pyrazolo[3,4-d]pyrimidin-1-yl)ethyl)-5-fluoro-3-(3-fluorophenyl)-4H-chromen-4-one]
12 | 50 to 75 | 25 to 50 | 258 to 260 | 25 to 50 | – | – | COC(=O)c1ccc(-c2nn(C(C)c3oc4cccc(F)c4c(=O)c3-c3cccc(F)c3)c3ncnc(N)c23)c(F)c1 (stereo not drawn) [Example 64, methyl 4-(4-amino-1-(1-(5-fluoro-3-(3-fluorophenyl)-4-oxo-4H-chromen-2-yl)ethyl)-1H-pyrazolo[3,4-d]pyrimidin-3-yl)-3-fluorobenzoate]
13 | – | – | 247 to 249 | – | – | % inhibition (PI3kδ) 100 nM (PI3kδ): B (B=>50 to 75%); % inhibition (PI3kγ) 100 nM (PI3kγ; 0.1 µM): A (A=>75 to 100%); % inhibition (PI3kβ) 1 uM (PI3kβ): C (C=>25 to 50%) | CC(Nc1ncnc2[nH]cnc12)c1oc2cccc(F)c2c(=O)c1-c1cccc(F)c1 (stereo not drawn) [Example 69, 2-(1-(9H-purin-6-ylamino)ethyl)-5-fluoro-3-(3-fluorophenyl)-4H-chromen-4-one]
14 | 75 to 100 | 75 to 100 | 122 to 124 | – | – | IC50 (PI3kδ): ≤ 50 nM; IC50 (PI3kγ): ≤ 50 nM | CC(C)Oc1ccc(-c2nn(C(C)c3oc4cccc(F)c4c(=O)c3-c3cccc(F)c3)c3ncnc(N(C)C)c23)cc1F (stereo not drawn) [Example 83, 2-(1-(4-(dimethylamino)-3-(3-fluoro-4-isopropoxyphenyl)-1H-pyrazolo[3,4-d]pyrimidin-1-yl)ethyl)-5-fluoro-3-(3-fluorophenyl)-4H-chromen-4-one]
15 | – | – | 193 to 196 | – | – | IC50 (PI3kδ): ≤ 50 nM; % inhibition (PI3kδ) 100 nM (PI3kδ): B (B=>50 to 75%); IC50 (PI3kγ): > 500 nM; % inhibition (PI3kγ) 100 nM (PI3kγ): C (C=>25 to 50%) | CNc1ncnc2c1c(-c1ccc(OC(C)C)c(F)c1)nn2C(C)c1oc2cccc(F)c2c(=O)c1-c1cccc(F)c1 (stereo not drawn) [Example 84, 5-fluoro-2-(1-(3-(3-fluoro-4-isopropoxyphenyl)-4-(methylamino)-1H-pyrazolo[3,4-d]pyrimidin-1-yl)ethyl)-3-(3-fluorophenyl)-4H-chromen-4-one]
16 | 50 to 75 | 25 to 50 | 165 to 167 | – | 0 to 25 | IC50 (PI3kγ): > 500 nM | CC(C)C(=O)Nc1ccc(-c2nn(C(C)c3oc4cccc(F)c4c(=O)c3-c3ccc(F)cc3)c3ncnc(N4CCOCC4)c23)cc1F (stereo not drawn) [Example 86, N-(2-fluoro-4-(1-(1-(5-fluoro-3-(4-fluorophenyl)-4-oxo-4H-chromen-2-yl)ethyl)-4-morpholino-1H-pyrazolo[3,4-d]pyrimidin-3-yl)phenyl)isobutyramide]
17 | 25 to 50 | 25 to 50 | 135 to 138 | – | – | – | CC(c1oc2cccc(F)c2c(=O)c1-c1cn[nH]c1)n1nc(-c2ccc(OC(F)F)c(F)c2)c2c(N)ncnc21 (stereo not drawn) [Example 91, 2-(1-(4-amino-3-(4-(difluoromethoxy)-3-fluorophenyl)-1H-pyrazolo[3,4-d]pyrimidin-1-yl)ethyl)-5-fluoro-3-(1H-pyrazol-4-yl)-4H-chromen-4-one]
18 | 0 to 25 | 0 to 25 | 227 to 229 | – | – | – | CC(C)Oc1ccc(-c2nn(C(C)c3oc4cccc(N5CCOCC5)c4c(=O)c3-c3cccc(F)c3)c3ncnc(N)c23)cc1F (stereo not drawn) [Example 120, 2-(1-(4-amino-3-(3-fluoro-4-isopropoxyphenyl)-1H-pyrazolo[3,4-d]pyrimidin-1-yl)ethyl)-3-(3-fluorophenyl)-5-morpholino-4H-chromen-4-one]
19 | 25 to 50 | 0 to 25 | 242 to 245 | – | – | – | CC(c1oc2cccc(F)c2c(=O)c1-c1cccc(F)c1)n1nc(-c2ccc3c(c2)C(=O)NC3)c2c(N)ncnc21 (stereo not drawn) [Example 122, 6-(4-amino-1-(1-(5-fluoro-3-(3-fluorophenyl)-4-oxo-4H-chromen-2-yl)ethyl)-1H-pyrazolo[3,4-d]pyrimidin-3-yl)isoindolin-1-one]
20 | 25 to 50 | – | 199 to 201 | – | 0 to 25 | – | CC(c1oc2cccc(F)c2c(=O)c1-c1cccc(F)c1)n1cnc2c(N3CCN(C)CC3)ncnc21 (stereo not drawn) [Example 125, 5-fluoro-3-(3-fluorophenyl)-2-(1-(6-(4-methylpiperazin-1-yl)-9H-purin-9-yl)ethyl)-4H-chromen-4-one]
21 | 50 to 75 | 25 to 50 | 225 to 227 | – | – | – | CCOc1ccc(-c2nn(C(C)c3oc4cccc(F)c4c(=O)c3-c3cccc(F)c3)c3ncnc(N)c23)cc1C(F)(F)F (stereo not drawn) [Example 132, 2-(1-(4-amino-3-(4-ethoxy-3-(trifluoromethyl)phenyl)-1H-pyrazolo[3,4-d]pyrimidin-1-yl)ethyl)-5-fluoro-3-(3-fluorophenyl)-4H-chromen-4-one]
